Experimental data as given in patent US20260083865A1, “PROSTATE SPECIFIC MEMBRANE ANTIGEN (PSMA) LIGANDS AND USE THEREOF” (priority 2022, published 2026).
Read-outs that look alike come from different tables or passages of the source. Numbered stars: 1 amine (or outer) side, 2 acyl side, 3 side chain; on linkers, the order of the positions; unused ones are H or OH. Bridge positions count the residues as written; N and C are the ends. Square brackets hold non-standard residues; d marks the D form. Peptide text beside a SMILES is read from it. * marks the point of attachment. DOTA = O=C(O)CN1CCN(CC(=O)O)CCN(CC(=O)*)CCN(CC(=O)O)CC1; Ala(quinolin-3-yl) = N[C@@H](Cc1cnc2ccccc2c1)C(=O)O; Phe(4-Cl) = N[C@@H](Cc1ccc(Cl)cc1)C(=O)O; Arg(Me) = CNC(=N)NCCC[C@H](N)C(=O)O; X1 = O=C(CC1CCN([*:1])CC1)[*:2]; Cit = NC(=O)NCCC[C@H](N)C(=O)O; Lys(Me) = CNCCCC[C@H](N)C(=O)O; NMeN = CN[C@@H](CC(N)=O)C(=O)O; Thr(ol) = C[C@@H](O)[C@H](N)CO; Suc = O=C(CCC(=O)[*:2])[*:1]; Tle = CC(C)(C)[C@H](N)C(=O)O; Aib = CC(C)(N)C(=O)O; βAla = NCCC(=O)O

Columns and labels:
[1] = target: T1, PSMA-expressing C4-2 cells (Homo sapiens, UniProt Q04609); test: FACS binding assay (competition with 50 nM PSM-0183); conditions: read-out: pIC50 [C4-2] CAT (converted)
T1 construct: PSMA-expressing C4-2 cells (ATCC, Cat. No. CRL-3314) were cultured in RPMI-1640; host or cells: C4-2 cells
Description: In order to determine binding of compounds according to the present invention to PSMA-expressing cells, a FACS binding assay was established.
PSMA-expressing C4-2 cells (ATCC, Cat. No. CRL-3314) were cultured in RPMI-1640 (Pan Biotech, Cat. No. P04-18050) including 10% fetal calf serum (Biochrom) and 100 U/ml penicillin and 100 μg/mL streptomycin (Sigma, Cat. No. P0781). Cells were detached with Accutase (Biolegend, Cat. No. BLD-423201) and washed in FACS buffer (PBS (Sigma, Cat. No. D8537) including 1% fetal calf serum). Cells were diluted in FACS buffer to a final concentration of 500,000 cells per mL. 200 μL of the cell suspension were transferred to a u-shaped non-binding 96-well plate (Greiner Bio-One, Cat. No. 650901) and cells were washed in ice-cold FACS buffer.
For IC50 determination, C4-2 cells were incubated with 50 nM PSM-0183 (Ac-Thr-Aib-Phe[Cys-Lys-Arg-Aib-Asn-Cys]-Tle-Thr-Asp-Ttds-Ttds-AF488N3K-NH2) in the presence of increasing concentrations of test compounds at 4° C. for 1 hour. After two wash steps with ice-cold FACS buffer, cells were analyzed in an Attune NxT flow cytometer. Median fluorescence intensities (MFI) of the FITC/AF488-channel were calculated by Attune NxT software. MFI values were plotted against peptide concentration and four parameter logistic (4PL) curve fitting and IC50/pIC50 calculations were performed using ActivityBase software (IDBS).

[2] = target: T2, Fc-fusion protein of human PSMA (hPSMA-Fc) (Homo sapiens, UniProt Q04609); test: Surface plasmon resonance assay (Biacore T200, single cycle kinetic); assay type: binding; conditions: read-out: pKD CAT (converted)
T2 construct: purchased Acro Biosystems PSA-H5264
Description: Surface plasmon resonance (SPR) studies were performed using a Biacore™ T200 SPR system. Briefly, polarized light is directed towards a gold-labeled sensor surface, and minimum intensity reflected light is detected. The angle of reflected light changes as molecules bind and dissociate.
Fc-fusion protein of human PSMA (hPSMA-Fc, Acro Biosystems, Cat #PSA-H5264) was captured on a Fc-capture chip (Biacore™ CM5 sensor chip coated with ˜300 RU of an Fc-binding peptide). hPSMA-Fc was diluted in Running Buffer (HBST, 0.1% DMSO) to a final concentration of 100 nM and then flushed over the Fc-capture chip to immobilized ˜1000 RUs.
Stock solutions of test compounds were prepared by dissolving each compound in DMSO. DMSO stock solution were diluted 1:1000 in Running Buffer without DMSO. Further sequential dilutions were made with Running Buffer containing 0.1% DMSO. SPR binding analyses were performed in Single Cycle Kinetic (SCK) mode at 25° C. Flow cell coated with the Fc-binding peptide only served as reference flowcell. After each SCK run, hPSMA-Fc was removed with 10 mM glycine buffer, pH 1.5.
In between every three SCK measurements, a blank run with Running Buffer instead of test compound was included to correct for baseline drifts (double blanking method).
Table 5 describes the protocol steps for Fc-fusion target capturing and assessment of the binding kinetics.
For each test compound, SPR raw data in the form of resonance units (RU) were plotted as sensorgrams using the Biacore™ T200 control software. The signal from the blank sensorgram was subtracted from that of the test compound sensorgram (blank corrected). The blank corrected sensorgram was corrected for baseline drift by subtracting the sensorgram of a SCK run without the test compound (running buffer only). The dissociation constant (KD) was calculated from Blank-normalized SPR data using the 1:1 Langmuir binding model from the Biacore™ Insight Evaluation software. The pKD value (negative decadic logarithm of dissociation constant) was calculated using Microsoft Excel.

[3] = FACS binding, C4-2 cells, category
[4] = FACS binding, PSMA-expressing C4-2 cells, pIC50 category
[5] = PSMA SPR assay, hPSMA-Fc, 25° C., pKD category

T1 sequence (Q04609 whole entry): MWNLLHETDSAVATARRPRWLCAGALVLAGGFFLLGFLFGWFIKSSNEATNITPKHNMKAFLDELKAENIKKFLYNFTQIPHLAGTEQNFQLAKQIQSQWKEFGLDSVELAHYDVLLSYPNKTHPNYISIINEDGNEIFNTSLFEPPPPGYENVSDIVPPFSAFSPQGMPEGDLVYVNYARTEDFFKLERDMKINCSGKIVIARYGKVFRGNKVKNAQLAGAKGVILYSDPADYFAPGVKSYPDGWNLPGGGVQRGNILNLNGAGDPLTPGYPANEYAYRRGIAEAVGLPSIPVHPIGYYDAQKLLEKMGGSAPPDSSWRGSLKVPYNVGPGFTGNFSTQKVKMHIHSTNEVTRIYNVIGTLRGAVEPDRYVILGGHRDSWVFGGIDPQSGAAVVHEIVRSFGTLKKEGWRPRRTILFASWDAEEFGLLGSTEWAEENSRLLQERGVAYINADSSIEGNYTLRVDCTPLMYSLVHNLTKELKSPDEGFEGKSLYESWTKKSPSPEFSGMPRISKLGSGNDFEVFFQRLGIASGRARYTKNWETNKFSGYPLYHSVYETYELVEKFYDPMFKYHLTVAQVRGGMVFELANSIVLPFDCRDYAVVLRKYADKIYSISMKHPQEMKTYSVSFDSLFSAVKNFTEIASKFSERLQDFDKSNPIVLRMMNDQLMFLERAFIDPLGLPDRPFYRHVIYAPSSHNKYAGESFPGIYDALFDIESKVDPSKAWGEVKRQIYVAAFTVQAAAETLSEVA
T2 sequence (Q04609 44-750 limits assumed): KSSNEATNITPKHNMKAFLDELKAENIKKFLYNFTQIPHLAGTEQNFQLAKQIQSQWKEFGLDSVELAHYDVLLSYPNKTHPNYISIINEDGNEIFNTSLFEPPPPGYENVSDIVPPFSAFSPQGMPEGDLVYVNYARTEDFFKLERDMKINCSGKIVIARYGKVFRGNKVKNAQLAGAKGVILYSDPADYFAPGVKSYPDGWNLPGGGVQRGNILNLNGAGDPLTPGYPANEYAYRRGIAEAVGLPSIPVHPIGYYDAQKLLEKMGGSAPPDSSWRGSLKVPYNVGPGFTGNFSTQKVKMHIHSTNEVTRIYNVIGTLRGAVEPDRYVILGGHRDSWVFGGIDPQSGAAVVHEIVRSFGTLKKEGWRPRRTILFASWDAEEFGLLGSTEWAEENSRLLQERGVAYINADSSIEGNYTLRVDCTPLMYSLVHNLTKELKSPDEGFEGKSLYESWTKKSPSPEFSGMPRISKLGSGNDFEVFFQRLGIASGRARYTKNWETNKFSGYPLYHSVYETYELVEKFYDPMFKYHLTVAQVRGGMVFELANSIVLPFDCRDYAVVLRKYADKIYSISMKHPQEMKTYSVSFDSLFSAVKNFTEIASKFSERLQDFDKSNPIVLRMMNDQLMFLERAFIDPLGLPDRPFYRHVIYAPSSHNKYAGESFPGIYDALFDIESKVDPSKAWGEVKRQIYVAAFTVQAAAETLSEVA

| IC50 [1, 3] [nM] | Kd ([2]; PSMA SPR assay, category) [nM] | IC50 [1, 4] [nM] | Kd [2, 5] [nM] | Structure (SMILES) | further results |
| --- | --- | --- | --- | --- | --- |
| < 200 | < 12.6 | – | – | CNCCCC[C@@H]1NC(=O)[C@@H](NC(=O)[C@H](Cc2ccc(Cl)cc2)NC(=O)C(C)(C)NC(=O)[C@@H](NC(=O)CC2CCN(C(=O)CN3CCN(CC(=O)O)CCN(CC(=O)O)CCN(CC(=O)O)CC3)CC2)[C@@H](C)O)CSSC[C@@H](C(=O)N[C@H](C(=O)NCCC(N)=O)C(C)(C)C)NC(=O)[C@H](CC(N)=O)NC(=O)C(C)(C)NC(=O)[C@H](CCCNC(=N)NC)NC1=O [PSM-606] ({DOTA}-[X1]T[Aib][Phe(4-Cl)]C[Lys(Me)][Arg(Me)][Aib]NC[Tle][βAla]-NH2; disulfide 5-10) | – |
| < 200 | 12.6 to 126 | – | – | C[C@@H]1NC(=O)[C@H](CCCNC(=N)N)NC(=O)[C@H](CCCCN)NC(=O)[C@@H](NC(=O)[C@H](Cc2ccc(Cl)cc2)NC(=O)C(C)(C)NC(=O)[C@@H](NC(=O)CC2CCN(C(=O)CN3CCN(CC(=O)O)CCN(CC(=O)O)CCN(CC(=O)O)CC3)CC2)[C@@H](C)O)CSSC[C@@H](C(=O)N[C@H](C(=O)N[C@H](C(N)=O)[C@@H](C)O)C(C)(C)C)NC(=O)[C@H](CC(N)=O)N(C)C1=O [PSM-0585, DOTA-Cmp-Thr-Aib-Pcf-[Cys-Lys-Arg-Ala-Nmn-Cys]-Tle-Thr-NH2] ({DOTA}-[X1]T[Aib][Phe(4-Cl)]CKRA[NMeN]C[Tle]T-NH2; disulfide 5-10) | – |

The next lines start with the compound.

| Structure (SMILES) | IC50 [1, 3] [nM] | Kd ([2]; PSMA SPR assay, category) [nM] | IC50 [1, 4] [nM] | Kd [2, 5] [nM] | further results |
| --- | --- | --- | --- | --- | --- |
| C[C@@H](O)[C@H](NC(=O)[C@@H](NC(=O)[C@@H]1CSSC[C@H](NC(=O)[C@H](Cc2ccccc2)NC(=O)C(C)(C)NC(=O)CCC(=O)O)C(=O)N[C@@H](CCCCN)C(=O)N[C@@H](CCCNC(=N)N)C(=O)NC(C)(C)C(=O)N[C@@H](CC(N)=O)C(=O)N1)C(C)(C)C)C(N)=O [PSM-0577, HO-Succinyl-Aib-Phe-[Cys-Lys-Arg-Aib-Asn-Cys]-Tle-Thr-NH2] (Suc-[Aib]FCKR[Aib]NC[Tle]T-NH2; disulfide 3-8) | < 200 | 12.6 to 126 | – | – | – |
| CC(=O)N[C@H](C(=O)NC(C)(C)C(=O)N[C@@H](Cc1ccc(Cl)cc1)C(=O)N[C@H]1CSSC[C@@H](C(=O)N[C@H](C(=O)N[C@H](CO)[C@@H](C)O)C(C)(C)C)NC(=O)[C@H](CC(N)=O)NC(=O)C(C)(C)NC(=O)[C@H](CCCNC(=N)N)NC(=O)[C@H](CCCCN)NC1=O)[C@@H](C)O [PSM-0554, Ac-Thr-Aib-Pcf-[Cys-Lys-Arg-Aib-Asn-Cys]-Tle-Throl-OH] (Ac-T[Aib][Phe(4-Cl)]CKR[Aib]NC[Tle][Thr(ol)]; disulfide 4-9) | – | – | – | – | IC50 ([1]; pIC50 category of FACS binding, C4-2 cells): < 200 nM; Kd ([2]; pKD category for PSMA SPR activity assay, hPSMA-Fc, 25° C.): < 12.6 nM |
| C[C@@H](O)[C@H](NC(=O)[C@@H](NC(=O)[C@@H]1CSSC[C@H](NC(=O)[C@H](Cc2cnc3ccccc3c2)NC(=O)C(C)(C)NC(=O)[C@@H](NC(=O)CC2CCN(C(=O)CN3CCN(CC(=O)O)CCN(CC(=O)O)CCN(CC(=O)O)CC3)CC2)[C@@H](C)O)C(=O)N[C@@H](CCCCN)C(=O)N[C@@H](CCCNC(N)=O)C(=O)NC(C)(C)C(=O)N[C@@H](CC(N)=O)C(=O)N1)C(C)(C)C)C(N)=O [PSM-0333, DOTA-Cmp-Thr-Aib-2Qi-[Cys-Lys-Cit-Aib-Asn-Cys]-Tle-Thr-NH2] ({DOTA}-[X1]T[Aib][Ala(quinolin-3-yl)]CK[Cit][Aib]NC[Tle]T-NH2; disulfide 5-10) | – | – | > 3160 | > 501 | – |
| CC(=O)N[C@H](C(=O)NC(C)(C)C(=O)N[C@@H](Cc1ccc(Cl)cc1)C(=O)N[C@H]1CSSC[C@@H](C(=O)N[C@H](C(=O)N[C@H](C(=O)N[C@@H](CC(=O)O)C(N)=O)[C@@H](C)O)C(C)(C)C)NC(=O)[C@H](CC(N)=O)NC(=O)C(C)(C)NC(=O)[C@H](CCCNC(=N)N)NC(=O)[C@H](CCCCN)NC1=O)[C@@H](C)O [PSM-0318, Ac-Thr-Aib-Pcf-[Cys-Lys-Arg-Aib-Asn-Cys]-Tle-Thr-Asp-NH2] (Ac-T[Aib][Phe(4-Cl)]CKR[Aib]NC[Tle]TD-NH2; disulfide 4-9) | – | – | < 200 | < 12.6 | – |
